Test results: ChEMBL document CHEMBL1158227, “Effect of Polygonum hydropiper sulfated flavonoids on lens aldose reductase and related enzymes” (J Nat Prod, 1996)
The source made the active and inactive calls. The calls are words filed in the database; no cut-off is given here.

Assays:
[1] = Inhibition of pig kidney aldehyde reductase by spectrophotometry; design: species or system Sus scrofa
[2] = Inhibition of bovine liver NADH oxidase; design: species or system Bos taurus
[3] = target: Aldo-keto reductase family 1 member B1 (Sus scrofa, UniProt P80276); assay: Inhibition of pig lens aldose reductase by spectrophotometry
[4] = target: Aldo-keto reductase family 1 member B1 (Sus scrofa) (UniProt P80276); assay: Inhibition of pig lens aldose reductase at 0.54 uM by Lineweaver-Burke plot
[5] = target: Aldo-keto reductase family 1 member B1 (Sus scrofa) (UniProt P80276); assay: Inhibition of pig lens aldose reductase at 1.8 uM by Lineweaver-Burke plot

Row | IC50 [1] [µM] | IC50 [2] [µM] | IC50 [3] [µM] | Activity [4] | Activity [5] | Compound
1 | 49.5 | > 54 | 1.8 | Active | Active | COc1cc(-c2oc3cc(OS(=O)(=O)O)cc(O)c3c(=O)c2OS(=O)(=O)O)ccc1O
2 | > 69 | > 69 | 69 |  |  | COc1cc(-c2oc3cc(O)cc(O)c3c(=O)c2OS(=O)(=O)O)ccc1O [PERSICARIN]
3 | > 50 | > 50 | 5 |  |  | COc1ccc(-c2oc3cc(OS(=O)(=O)O)cc(O)c3c(=O)c2O[C@@H]2O[C@H](CO)[C@@H](O)[C@H](O)[C@H]2O)cc1O
4 | > 91 | > 91 | > 91 |  |  | COc1cc(O)c2c(=O)c(O)c(-c3ccc(O)c(OC)c3)oc2c1 [RHAMNAZIN]
5 | > 64 | > 64 | 16 |  |  | O=c1c(O[C@@H]2O[C@H](CO)[C@@H](O)[C@H](O)[C@H]2O)c(-c2ccc(O)c(O)c2)oc2cc(O)cc(O)c12 [ISOQUERCETIN]
6 | 43.5 | > 67 | 30.1 |  |  | COc1cc(O)c2c(=O)c(OS(=O)(=O)O)c(-c3ccc(O)c(OC)c3)oc2c1
7 | 55.6 | > 71 | 50.9 |  |  | O=c1c(OS(=O)(=O)O)c(-c2ccc(O)c(O)c2)oc2cc(O)cc(O)c12

Row | Compound | IC50 [1] [µM] | IC50 [2] [µM] | IC50 [3] [µM] | Activity [4] | Activity [5]
8 | O=c1c(O)c(-c2ccc(O)c(O)c2)oc2cc(O)cc(O)c12 [QUERCETIN] | > 91 | 65.3 | 50.1 |  | 
9 | COc1cc(-c2oc3cc(O)cc(O)c3c(=O)c2O)ccc1O [ISORHAMNETIN] | > 95 | 88.6 | > 95 |  | 
